Measurements reported in ChEMBL document CHEMBL3885881, “DrugMatrix”.

Organism: Rattus norvegicus
Test: DrugMatrix - Regimen: Daily Repeat
Format: toxicity, organism-based, Sprague-Dawley
Parameters: regimen Daily Repeat, gender Male, age 6-8 weeks
Settings: in vivo, po, 0 mg/kg, route oral GAVAGE, dose level Control, vehicle .5 % CMC; for BASOPHIL / EOSINOPHIL / ERYTHROCYTE COUNT / HEMATOCRIT / HEMOGLOBIN / LEUKOCYTE COUNT / LYMPHOCYTE / MEAN CORPUSCULAR HEMOGLOBIN / MEAN CORPUSCULAR HEMOGLOBIN CONCENTRATION / MEAN CORPUSCULAR VOLUME / MONOCYTE / NEUTROPHIL / PLATELET COUNT: tissue Blood; for ALANINE AMINOTRANSFERASE / ALBUMIN / ALKALINE PHOSPHATASE / ASPARTATE AMINOTRANSFERASE / BLOOD UREA NITROGEN / CARBON DIOXIDE / CHLORIDE / CHOLESTEROL / CREATINE PHOSPHOKINASE / CREATININE / GLUCOSE / LACTATE DEHYDROGENASE / LIPASE / PHOSPHORUS / POTASSIUM / SODIUM / TOTAL BILIRUBIN / TOTAL PROTEIN / URIC ACID: tissue Plasma

Cc1ccc([N+](=O)[O-])cc1 [4-NITROTOLUENE]
BASOPHIL (96 h, time 4 day): 0.5% | EOSINOPHIL (96 h, time 4 day): 1.85% | ERYTHROCYTE COUNT (96 h, time 4 day): 6.99 x10E6/uL | HEMATOCRIT (96 h, time 4 day): 43.82% | HEMOGLOBIN (96 h, time 4 day): 13.87 G/DL | LEUKOCYTE COUNT (96 h, time 4 day): 12.01 x10E3/uL | LYMPHOCYTE (96 h, time 4 day): 82.07% | MEAN CORPUSCULAR HEMOGLOBIN (96 h, time 4 day): 19.8 pg | MEAN CORPUSCULAR HEMOGLOBIN CONCENTRATION (96 h, time 4 day): 31.63 G/DL | MEAN CORPUSCULAR VOLUME (96 h, time 4 day): 62.7 fL | MONOCYTE (96 h, time 4 day): 2.6% | NEUTROPHIL (96 h, time 4 day): 12.38% | PLATELET COUNT (96 h, time 4 day): 1155 x10E3/uL | ALANINE AMINOTRANSFERASE (96 h, time 4 day): 31.67 u/L | ALBUMIN (96 h, time 4 day): 4.12 G/DL | ALKALINE PHOSPHATASE (96 h, time 4 day): 396 u/L | ASPARTATE AMINOTRANSFERASE (96 h, time 4 day): 75.67 u/L | BLOOD UREA NITROGEN (96 h, time 4 day): 17.5 mg/dL | CARBON DIOXIDE (96 h, time 4 day): 28.83 mmol/L | CHLORIDE (96 h, time 4 day): 103.83 MEQ/L | CHOLESTEROL (96 h, time 4 day): 84.83 mg/dL | CREATINE PHOSPHOKINASE (96 h, time 4 day): 597.17 u/L | CREATININE (96 h, time 4 day): 0.3 mg/dL | GLUCOSE (96 h, time 4 day): 161.5 mg/dL | LACTATE DEHYDROGENASE (96 h, time 4 day): 138.67 u/L | LIPASE (96 h, time 4 day): 11.5 u/L | PHOSPHORUS (96 h, time 4 day): 11.58 mg/dL | POTASSIUM (96 h, time 4 day): 6.87 MEQ/L | SODIUM (96 h, time 4 day): 146.83 MEQ/L | TOTAL BILIRUBIN (96 h, time 4 day): 0.38 mg/dL | TOTAL PROTEIN (96 h, time 4 day): 6.33 G/DL | URIC ACID (96 h, time 4 day): 1.37 mg/dL | BASOPHIL ([…], time 6 day): 0.37% | EOSINOPHIL ([…], time 6 day): 0.38% | ERYTHROCYTE COUNT ([…], time 6 day): 6.89 x10E6/uL | HEMATOCRIT ([…], time 6 day): 47.38% | HEMOGLOBIN ([…], time 6 day): 14.8 G/DL | LEUKOCYTE COUNT ([…], time 6 day): 13.59 x10E3/uL | LYMPHOCYTE ([…], time 6 day): 80.27% | MEAN CORPUSCULAR HEMOGLOBIN ([…], time 6 day): 21.52 pg | MEAN CORPUSCULAR HEMOGLOBIN CONCENTRATION ([…], time 6 day): 31.22 G/DL | MEAN CORPUSCULAR VOLUME ([…], time 6 day): 68.83 fL | MONOCYTE ([…], time 6 day): 2.78% | NEUTROPHIL ([…], time 6 day): 15.65% | PLATELET COUNT ([…], time 6 day): 1330.17 x10E3/uL | BASOPHIL ([…], time 14 day): 0.38% | EOSINOPHIL ([…], time 14 day): 0.6% | ERYTHROCYTE COUNT ([…], time 14 day): 7.78 x10E6/uL | HEMATOCRIT ([…], time 14 day): 48.3% | HEMOGLOBIN ([…], time 14 day): 15.42 G/DL | LEUKOCYTE COUNT ([…], time 14 day): 13.55 x10E3/uL | LYMPHOCYTE ([…], time 14 day): 81.18% | MEAN CORPUSCULAR HEMOGLOBIN ([…], time 14 day): 19.8 pg | MEAN CORPUSCULAR HEMOGLOBIN CONCENTRATION ([…], time 14 day): 31.92 G/DL | MEAN CORPUSCULAR VOLUME ([…], time 14 day): 62.08 fL | MONOCYTE ([…], time 14 day): 1.72% | NEUTROPHIL ([…], time 14 day): 15.17% | PLATELET COUNT ([…], time 14 day): 1083.83 x10E3/uL | ALANINE AMINOTRANSFERASE ([…], time 6 day): 36 u/L | ALBUMIN ([…], time 6 day): 4.03 G/DL | ALKALINE PHOSPHATASE ([…], time 6 day): 354.17 u/L | ASPARTATE AMINOTRANSFERASE ([…], time 6 day): 76.5 u/L | BLOOD UREA NITROGEN ([…], time 6 day): 19.33 mg/dL | CARBON DIOXIDE ([…], time 6 day): 27.83 mmol/L | CHLORIDE ([…], time 6 day): 105.5 MEQ/L | CHOLESTEROL ([…], time 6 day): 68.83 mg/dL | CREATINE PHOSPHOKINASE ([…], time 6 day): 383.83 u/L | CREATININE ([…], time 6 day): 0.35 mg/dL | GLUCOSE ([…], time 6 day): 165.83 mg/dL | LACTATE DEHYDROGENASE ([…], time 6 day): 155.17 u/L | LIPASE ([…], time 6 day): 9.83 u/L | PHOSPHORUS ([…], time 6 day): 12.4 mg/dL | POTASSIUM ([…], time 6 day): 6.9 MEQ/L | SODIUM ([…], time 6 day): 147.33 MEQ/L | TOTAL BILIRUBIN ([…], time 6 day): 0.52 mg/dL | TOTAL PROTEIN ([…], time 6 day): 6.42 G/DL | URIC ACID ([…], time 6 day): 1.6 mg/dL | ALANINE AMINOTRANSFERASE ([…], time 14 day): 36.83 u/L | ALBUMIN ([…], time 14 day): 4.13 G/DL | ALKALINE PHOSPHATASE ([…], time 14 day): 328.17 u/L | ASPARTATE AMINOTRANSFERASE ([…], time 14 day): 74.83 u/L | BLOOD UREA NITROGEN ([…], time 14 day): 18.67 mg/dL | CARBON DIOXIDE ([…], time 14 day): 29.33 mmol/L | CHLORIDE ([…], time 14 day): 105.17 MEQ/L | CHOLESTEROL ([…], time 14 day): 72 mg/dL | CREATINE PHOSPHOKINASE ([…], time 14 day): 217.67 u/L | CREATININE ([…], time 14 day): 0.45 mg/dL | GLUCOSE ([…], time 14 day): 151.17 mg/dL | LACTATE DEHYDROGENASE ([…], time 14 day): 133.17 u/L | LIPASE ([…], time 14 day): 14.5 u/L | PHOSPHORUS ([…], time 14 day): 11.55 mg/dL | POTASSIUM ([…], time 14 day): 6.77 MEQ/L | SODIUM ([…], time 14 day): 149.33 MEQ/L | TOTAL BILIRUBIN ([…], time 14 day): 0.37 mg/dL | TOTAL PROTEIN ([…], time 14 day): 6.62 G/DL | URIC ACID ([…], time 14 day): 1.57 mg/dL
